Assay results published in PubChem BioAssay AID248 (DTP/NCI, 2004).
Values joined by “and” are separate entries in the source; they are usually repeats but may differ in a detail not shown here. Identical values can stand only once. Inconclusive results and toxic doses are left out. Rule as the data show it: active = T/C of 150% or more; inactive = T/C below 125%.

Test system: L1210 leukemia ip in BDF1 mice, survival T/C
Test: NCI In Vivo Anticancer Drug Screen. Data for tumor model L1210 Leukemia (intraperitoneal) in B6D2F1 (BDF1) mice
Settings: endpoint: mean survival time, higher = longer survival
Method in brief: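 Survival endpoint. Drug-treated group vs vehicle group, expressed as T divided by C. Tumor passaged by transplantation.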

[1] = dose: 100.0 mg/kg/injection, schedule: Q01DX009 (ip), vehicle: Klucel (hydroxypropylcellulose) (HPC)
[2] = dose: 100.0 mg/kg/injection, schedule: Q04DX003 (ip), vehicle: Klucel (hydroxypropylcellulose) (HPC)
[3] = dose: 200.0 mg/kg/injection, schedule: Q01DX009 (ip), vehicle: Klucel (hydroxypropylcellulose) (HPC)
[4] = dose: 200.0 mg/kg/injection, schedule: Q04DX003 (ip), vehicle: Klucel (hydroxypropylcellulose) (HPC)
[5] = dose: 400.0 mg/kg/injection, schedule: Q01DX009 (ip), vehicle: Klucel (hydroxypropylcellulose) (HPC)
[6] = dose: 400.0 mg/kg/injection, schedule: Q04DX003 (ip), vehicle: Klucel (hydroxypropylcellulose) (HPC)
[7] = dose: 100.0 mg/kg/injection, schedule: Q04DX003 (ip), vehicle: saline with Tween-80
[8] = dose: 100.0 mg/kg/injection, schedule: Q04DX003 (ip), vehicle: saline
[9] = dose: 200.0 mg/kg/injection, schedule: Q04DX003 (ip), vehicle: saline
[10] = dose: 400.0 mg/kg/injection, schedule: Q04DX003 (ip), vehicle: saline
[11] = dose: 25.0 mg/kg/injection, schedule: Q01DX009 (ip), vehicle: saline
[12] = dose: 25.0 mg/kg/injection, schedule: Q04DX003 (ip), vehicle: saline
[13] = dose: 50.0 mg/kg/injection, schedule: Q04DX003 (ip), vehicle: saline
[14] = dose: 100.0 mg/kg/injection, schedule: Q01DX001 (ip), vehicle: Klucel (hydroxypropylcellulose) (HPC)
[15] = dose: 200.0 mg/kg/injection, schedule: Q01DX001 (ip), vehicle: Klucel (hydroxypropylcellulose) (HPC)
[16] = dose: 400.0 mg/kg/injection, schedule: Q01DX001 (ip), vehicle: Klucel (hydroxypropylcellulose) (HPC)

Measured: T/C

CC12C=CC3(CCC4C(C)(C)C(O)C(=O)CC4(C)C3CC1=O)C2 (configuration not stated)
inactive: [1] 105 % of control | [2] 101 % of control | [3] 97 % of control | [4] 101 % of control | [5] 107 % of control | [6] 98 % of control

CCCCOP(=O)(C=C(C(C)=O)C(C)=O)OCCCC
inactive: [2] 95 % of control | [4] 119 % of control | [6] 97 % of control

CC1=CC(=O)C2(C)C(C)=C(C)C12C (configuration not stated)
inactive: dose: 50.0 mg/kg/injection, schedule: Q04DX003 (ip), vehicle: saline with Tween-80 99 % of control | dose: 75.0 mg/kg/injection, schedule: Q01DX001 (ip), vehicle: saline 105 % of control | [7] 94 % of control | dose: 150.0 mg/kg/injection, schedule: Q01DX001 (ip), vehicle: saline 111 % of control | dose: 300.0 mg/kg/injection, schedule: Q01DX001 (ip), vehicle: saline 97 % of control

CCN1CCC2CN(C(=N)N)CCN2C1=O (configuration not stated)
inactive: [8] 101 % of control | [9] 103 % of control | [10] 116 % of control

O=C(O)CCCCCN1C(=O)CCC1=O
inactive: dose: 75.0 mg/kg/injection, schedule: Q04DX003 (ip), vehicle: saline 95 % of control | dose: 150.0 mg/kg/injection, schedule: Q04DX003 (ip), vehicle: saline 103 % of control | dose: 300.0 mg/kg/injection, schedule: Q04DX003 (ip), vehicle: saline 92 % of control

O=C(NC(=S)Nc1ccc(F)cc1)c1ccccc1F
inactive: dose: 25.0 mg/kg/injection, schedule: Q01DX009 (ip), vehicle: gum acacia 104 % of control | dose: 50.0 mg/kg/injection, schedule: Q01DX009 (ip), vehicle: gum acacia 107 % of control | dose: 100.0 mg/kg/injection, schedule: Q01DX009 (ip), vehicle: gum acacia 96 % of control and 105 % of control

S=P(c1ccccc1)(N1CCCCC1)N1CCCCC1
inactive: [8] 97 % of control | [9] 93 % of control

Cc1cc(=O)[nH]cn1
inactive: [8] 100 % of control | [9] 112 % of control | [10] 94 % of control

O=C(N/N=C/c1ccccc1)c1ccccc1
inactive: dose: 100.0 mg/kg/injection, schedule: Q01DX009 (ip), vehicle: saline 102 % of control | dose: 100.0 mg/kg/injection, schedule: Q04DX003 (ip), vehicle: alcohol 98 % of control | dose: 200.0 mg/kg/injection, schedule: Q01DX009 (ip), vehicle: saline 104 % of control | dose: 200.0 mg/kg/injection, schedule: Q04DX003 (ip), vehicle: alcohol 95 % of control | dose: 400.0 mg/kg/injection, schedule: Q01DX009 (ip), vehicle: saline 96 % of control | dose: 400.0 mg/kg/injection, schedule: Q04DX003 (ip), vehicle: alcohol 90 % of control

CC(=O)c1ccc(C(C)=O)c(OCc2ccccc2)c1
inactive: [1] 101 % of control | [2] 103 % of control | [3] 95 % of control | [4] 98 % of control | [5] 92 % of control | [6] 97 % of control

CC(=O)[O][Hg][CH]1Cc2ccccc2O1 (configuration not stated)
inactive: dose: 15.0 mg/kg/injection, schedule: Q01DX001 (ip), vehicle: carboxymethylcellulose (CMC) 94 % of control

C[N+](C)(C)C1(Cc2ccccc2)c2ccccc2-c2ccccc21
inactive: [11] 93 % of control | [12] 96 % of control | dose: 50.0 mg/kg/injection, schedule: Q01DX009 (ip), vehicle: saline 114 % of control | [13] 99 % of control | [7] 97 % of control | [8] 86 % of control

CC1OC(=O)C(C2OC2C)=CC1O (configuration not stated)
inactive: dose: 12.5 mg/kg/injection, schedule: Q01DX009 (ip), vehicle: saline 97 % of control | dose: 12.5 mg/kg/injection, schedule: Q04DX003 (ip), vehicle: saline 101 % of control | [11] 108 % of control | [12] 108 % of control | dose: 50.0 mg/kg/injection, schedule: Q01DX001 (ip), vehicle: saline 114 % of control | [13] 92 % of control

CC(C)(C)CC(C)(C)c1ccc(OCCOCCOc2ccc([N+](=O)[O-])cc2)cc1
inactive: dose: 100.0 mg/kg/injection, schedule: Q01DX009 (ip), vehicle: saline sonified 94 % of control | dose: 200.0 mg/kg/injection, schedule: Q01DX009 (ip), vehicle: saline sonified 96 % of control | dose: 400.0 mg/kg/injection, schedule: Q01DX009 (ip), vehicle: saline sonified 94 % of control

CCC1(C)n2c(=O)c3ccccc3c(=O)n21
inactive: dose: 100.0 mg/kg/injection, schedule: Q04DX002 (ip), vehicle: saline with Tween-80 97 % of control | dose: 200.0 mg/kg/injection, schedule: Q04DX002 (ip), vehicle: saline with Tween-80 101 % of control | dose: 400.0 mg/kg/injection, schedule: Q04DX002 (ip), vehicle: saline with Tween-80 90 % of control

CC1=C(C)CC(/C(=N\Nc2ccc([N+](=O)[O-])cc2[N+](=O)[O-])c2ccccc2)CC1 (configuration not stated)
inactive: dose: 100.0 mg/kg/injection, schedule: Q01DX001 (ip), vehicle: saline with Tween-80 89 % of control | dose: 200.0 mg/kg/injection, schedule: Q01DX001 (ip), vehicle: saline with Tween-80 89 % of control | dose: 400.0 mg/kg/injection, schedule: Q01DX001 (ip), vehicle: saline with Tween-80 96 % of control

COc1ccc(OC)c(NC(=O)NNC(=O)CNC(=O)Nc2cccc(C)n2)c1
inactive: dose: 25.0 mg/kg/injection, schedule: Q01DX009 (ip), vehicle: saline with Tween-80 94 % of control | dose: 50.0 mg/kg/injection, schedule: Q01DX009 (ip), vehicle: saline with Tween-80 94 % of control | dose: 100.0 mg/kg/injection, schedule: Q01DX009 (ip), vehicle: saline with Tween-80 90 % of control

O=C(NC(=O)c1ccccc1)Nc1cccc2ccccc12
inactive: dose: 100.0 mg/kg/injection, schedule: Q04DX002 (ip), vehicle: gum acacia 97 % of control | dose: 200.0 mg/kg/injection, schedule: Q04DX002 (ip), vehicle: gum acacia 90 % of control | dose: 400.0 mg/kg/injection, schedule: Q04DX002 (ip), vehicle: gum acacia 90 % of control

O=[N+]([O-])c1ccc(N/N=C\c2ccc(OCc3ccccc3)cc2)c([N+](=O)[O-])c1
inactive: dose: 100.0 mg/kg/injection, schedule: Q01DX001 (ip), vehicle: other 86 % of control

CC(C)CCOC(=O)C1OC1(C)c1ccccc1 (configuration not stated)
inactive: dose: 100.0 mg/kg/injection, schedule: Q04DX002 (ip), vehicle: saline 101 % of control | dose: 200.0 mg/kg/injection, schedule: Q04DX002 (ip), vehicle: saline 93 % of control | dose: 400.0 mg/kg/injection, schedule: Q04DX002 (ip), vehicle: saline 112 % of control

O=S(=O)(OCC1CO1)c1ccccc1 (configuration not stated)
inactive: dose: 50.0 mg/kg/injection, schedule: Q01DX006 (ip), vehicle: saline with Tween-80 103 % of control | dose: 100.0 mg/kg/injection, schedule: Q01DX006 (ip), vehicle: saline with Tween-80 106 % of control | dose: 200.0 mg/kg/injection, schedule: Q01DX006 (ip), vehicle: saline with Tween-80 110 % of control

NCCc1cc(O)c(O)c(S(=O)(=O)c2ccc(N)cc2)c1
inactive: dose: 75.0 mg/kg/injection, schedule: Q01DX009 (ip), vehicle: saline 107 % of control | dose: 150.0 mg/kg/injection, schedule: Q01DX009 (ip), vehicle: saline 105 % of control

CC1(C)CC(C(=O)c2ccccc2)C(=O)c2ccccc21 (configuration not stated)
inactive: [14] 105 % of control | [15] 97 % of control | [16] 86 % of control

Cc1cc(NC(=O)CCc2ccc(N3C(N)=NC(N)=NC3(C)C)cc2)ccc1S(=O)(=O)F (tested in a mixture with another compound)
inactive: [14] 90 % of control | [15] 90 % of control | [16] 92 % of control

C=CCNC(=O)CS(=O)(=O)NCC=C
inactive: dose: 100.0 mg/kg/injection, schedule: Q04DX003 (ip), vehicle: carboxymethylcellulose (CMC) 95 % of control | dose: 200.0 mg/kg/injection, schedule: Q04DX003 (ip), vehicle: carboxymethylcellulose (CMC) 96 % of control | dose: 400.0 mg/kg/injection, schedule: Q04DX003 (ip), vehicle: carboxymethylcellulose (CMC) 117 % of control

CCCCN(Cc1ccccc1)C(=S)Nc1ccccc1
inactive: [1] 106 % of control | [3] 108 % of control | [5] 108 % of control

COC(=O)CSc1nn2nnnc2c2ccccc12
inactive: [13] 95 % of control | [8] 103 % of control | [9] 98 % of control
